Reference: patent US10030256B2, “Method for producing lysophosphatidylethanolamine 18:1 from microorganism of Pseudomonas sp” (KOREA RESEARCH INSTITUTE OF BIOSCIENCE AND BIOTECHNOLOGY, priority 2015, dated 2018)

Experiments:
Pst-avrRpm1 = experiment: Recovery of local immune response in pla2α mutant plant by exogenous lipid after Pst-avrRpm1 inoculation; type: in vivo, Arabidopsis thaliana; details: for complementation of impaired local immunity of pla2α mutant plants (bacterial growth assay): FIG. 3B
Experimental: Arabidopsis plant was cultivated at temperature of 22° C. and relative humidity of 60% with conditions including 16 hours of light period and 120 μmoles m^−2s^−1 of photon flux density. Because the plant defense response is age-dependent, fully mature leaves of the 4 week old plant were used for various analyses. Arabidopsis (Arabidopsis thaliana) mutants including pla2α, pla2α-II, sid2, npr1-5, rps2 and ein2 (Salk_099415, CS857021, Salk_042603, CS3724, Salk_087581, CS3071 and CS8072, respectively) were purchased from Arabidopsis Biological Resource Center, USA. Arabidopsis mutants eds1 and pad4-5 were obtained from S. A. Whitham (Iowa State University, USA) and J. E. Parker (Max Planck Institute for Plant Breeding Research, Germany), respectively. The transgenic line expressing NPR1-eGFP and NahG were obtained from X. Dong (Duke University, USA) and O. M. Park (Korea University, South Korea), respectively.
(§1) Pseudomonas syringae pv. tomato DC3000 (hereinbelow, Pst) and Pst-avrRpm1, which is avrRpm1-containing bacterial strain with no virulency, were obtained from Y. J. Kim (Korea University, South Korea). Pst-avrRpt2, which is avrRpt2-containing bacterial strain with no virulency, was obtained from J. M. Park (KRIBB, South Korea) and Pst-avrRps4, which is avrRps4-containing bacterial strain with no virulency, was obtained from R. Innes (Indiana University, USA). The bacterial strains were cultured and treated according to the method of Katagiri, et al. (Arabidopsis Book, 2002, 1:e0039).
(§2) Every phospholipid was purchased from Avanti Polar Lipids Inc. (USA), and free fatty acids (16:0, 18:0 and 18:1) were purchased from Sigma Co. (USA). The solvent was dried under nitrogen gas stream, and the lipids were suspended therein according to ultrasonication so as to have final concentration of 100 nmol ml^−1 in 0.018% silwet L-77 (or 200 nmol ml^−1 in H2O).
(§3) Based on the analysis of pla2α mutant plants compared to wild type, we hypothesized that the defect in immune responses of the pla2α mutant may be due to the failure to generate the lipid products that mediate downstream immune responses. To test this hypothesis, we supplemented pla2α mutant with LPE18:1 1.5 h after inoculation of Pst-avrRpm1. […] Very importantly, LPE by itself renders local immunity in the absence of avirulent Pst (FIGS. 3C-3E). […] In addition, disease symptoms were much reduced in LPE-sprayed leaves compared to mock-treated ones (FIG. 3E).

[1] = suppression of aging; cited from earlier work
NPR1 = NPR1 transition in transgenic plant carrying 35S::NPR1-eGFP; type: in vivo, Arabidopsis thaliana; details: 35S::NPR1-eGFP transgenic plants, observed 6 hours after spraying
Experimental: NPR1 transition was determined by spraying LPE (100 nmol ml^−1 in 0.018% Silwet L-77), salicylic acid (0.3 mM in 0.018% Silwet L-77), or mock solution (0.018% Silwet L-77) to a transgenic plant carrying 35S::NPR1-eGFP, and observing, 6 hours later, the plant leaf with a laser scanning confocal microscope (Zeiss, Germany).

virulent Pst = experiment: Acquirement of local immunity against virulent Pst by treatment with only LPE; type: in vivo, Arabidopsis thaliana; details: for bacterial growth of virulent Pst: compared to mock treatment
Experimental: as §1, §2, §3

[2] = test system: salicylic acid, ethylene, and jasmonic acid; experiment: Quantification of salicylic acid, ethylene and jasmonic acid in Arabidopsis leaf; type: in vivo, Arabidopsis thaliana
From the text: According to the method described before (Bowling et al., 1994, Plant Cell 6:1845-1857; Heck et al., 2003, Plant J. 36:342-352), salicylic acid, ethylene, and jasmonic acid were quantified from 0.5 g of a Arabidopsis leaf sample which has been sprayed with Pst-avrRpm1 suspension (1×10^8 CFU ml^−1 in 0.018% Silwet L-77) or LPE (100 nmol ml^−1 in 0.018% Silwet L-77 or 200 nmol ml^−1 in H2O).

Pst = experiment: In vitro antibacterial activity against Pst; type: cell-based, Pseudomonas syringae pv. tomato DC3000
Experimental: In order to determine the antibacterial activity of PLA2α, 3 μg of recombinant PLA2α in free and mature form, which has been prepared according to the method by Ryu et al. (Biochem Biophys Acta. 2005, 1736:144-151), was added to 100 μl of a solution (Tris-HCl (50 mM, pH 8.0), 10 mM calcium chloride (CaCl2)) in which virulent Pst (5×10^5 CFU ml^1) is suspended. The bacteria sample was cultured in a weak shaking state at 28° C. for 6 hours. Thereafter, only the survived bacteria were titrated. As a mock control group, a suspension in which the bacteria are suspended in a solution having no PLA2α was used.

[3] = test system: PR1, PDF1.2, VSP1, JMT, ICS1, PAL1, ACS, LOX2; experiment: Gene expression analysis (RT-PCR / real-time qPCR) in Arabidopsis leaves after treatment; type: in vivo, Arabidopsis thaliana
Experimental: Total RNA was extracted by using RNA isolator (Gibco, USA) from a sample which has been frozen with liquid nitrogen (i.e., 2 leaves per sample). Reverse transcription polymerase chain reaction (RT-PCR) and real-time quantitative polymerase chain reaction (real-time qPCR) were carried out by using gene-specific primers. For the analysis of a real-time quantitative polymerase chain reaction, Applied Biosystems 7900 Real-Time PCR SYSTEM™ was used. 2×SYBR® Green qPCR master mix was used for PCT amplification. The analyzed data were normalized first against the amount of ACTIN1 gene, and the fold increase of gene expression according to treatment was determined in comparison with a mock or non-treatment plant (1.0 fold). Reference gene as an alternative (AT1G13320) was obtained from the previous study (Hong et al., 2010, Plant Cell Physiol. 51:1694-1706). The gene-specific primers that are used in the present invention are as described in Table 1 and Table 2 below.
as §2
(§4) The mature form of the recombinant PLA2α protein was produced in Escherichia coli which is fused with Dsbc protein. According to the method described before (Ryu et al., 2005, Biochem Biophys Acta. 1736:144-151), it was purified by affinity chromatography. The protein mixture in which PLA2α and Dsbc are separated from each other or Dsbc:PLA2α fusion protein (10 μgml^−1) was treated on the leaf of pla2α mutant by syringe infiltration, each in an amount of 0.5 μg. The enzyme activity of PLA2α was determined by in vitro analysis using substrate PE for a reaction mixture containing 10 mM Ca^2+ and 0.05% Triton X-100 in 50 mM Tris-HCl (pH 8.5). The mock-treated plant was infiltrated with a buffer (50 mM Tris-HCl, pH 8.0) or Dsbc protein. For inactivation of the PLA2α activity, recombinant PLA2α was pre-treated for 30 minutes at 30° C. with 2 μM manoalide as an irreversible inhibitor.

PLA2α = target: T1, PLA2α (Arabidopsis thaliana, UniProt Q8S8N6); experiment: In vitro analysis of PLA2 activity (inactivation by manoalide); type: biochemical; details: 2 μM manoalide, 30 minutes at 30° C.
T1 construct: The mature form of the recombinant PLA2α protein was produced in Escherichia coli which is fused with Dsbc protein; DsbC; made in house; host or cells: Escherichia coli
T1 sequence (Q8S8N6 21-148): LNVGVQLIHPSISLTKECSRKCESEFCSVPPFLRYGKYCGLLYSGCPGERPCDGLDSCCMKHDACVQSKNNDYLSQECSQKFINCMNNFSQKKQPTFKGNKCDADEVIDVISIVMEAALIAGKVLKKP
Experimental: as §4

lysophosphatidylglycerol [LPG, reference compound]
complementation of impaired local immunity of pla2α mutant plants (bacterial growth assay) (Pst-avrRpm1): only a little

lysophosphatidylethanolamine 18:1 [LPE18:1]
recovery of phenotypic defect of pla2α mutant plant (Pst-avrRpm1; FIG. 3A): recovery of phenotypic defect | complementation of impaired local immunity of pla2α mutant plants (bacterial growth assay) (Pst-avrRpm1): complemented by LPE | ability of the pla2α mutant to induce local immune responses (Pst-avrRpm1; pla2α mutant supplemented 1.5 h after inoculation of Pst-avrRpm1): restored the ability of the pla2α mutant to induce local immune responses | biological efficacy compared with LPE 16:0 or LPE 18:0 [1]: much higher biological efficacy | NPR1 translocation from the cytoplasm to the nucleus (NPR1): activated NPR1 by inducing its translocation from the cytoplasm to the nucleus | disease symptoms (virulent Pst; LPE-sprayed leaves compared to mock-treated): much reduced | bacterial growth of virulent Pst (virulent Pst; pla2α mutant plants): suppressed the bacterial growth | bacterial growth of virulent Pst (virulent Pst; wild type plants): suppressed the bacterial growth | JA levels ([2]; Arabidopsis leaves): did not exhibit a significant increase | ethylene levels ([2]; Arabidopsis leaves): an increase in ethylene levels | increase in SA levels ([2]; Arabidopsis leaves treated with LPE18:1): 2.5 fold | direct effect on bacterial growth in in vitro assays (Pst): no direct effect on bacterial growth | ACS gene expression ([3]; Arabidopsis leaves): exhibited ACS gene expression | LOX2 gene expression ([3]; Arabidopsis leaves): did not exhibit a significant increase in LOX2 gene expression | PAL1 expression ([3]; Arabidopsis leaves): did not elevate PAL1 expression | ICS1 gene expression ([3]; Arabidopsis leaves, 6 h post-treatment): displayed ICS1 gene expression | PR1 gene expression in the sid2 mutant plants ([3]; sid2 mutant): failed to induce PR1 gene expression | expression of the PR genes PR1 and PDF1.2 ([3]; wild type leaf, LPE vs mock, absence of avirulent Pst): induced the expression of the PR genes PR1 and PDF1.2

CC1=C(CC/C(C)=C/CCC2=CC[C@H](C3=CC(=O)O[C@H]3O)O[C@H]2O)C(C)(C)CCC1 [manoalide, reference compound]
inactivation of the PLA2α activity (PLA2α): Inactivation of the PLA2α activity caused by manoalide was confirmed | PR1 gene expression by rPLA2α catalytically inactivated with manoalide ([3]; rPLA2α pre-treated with PLA2 inhibitor manoalide): failed to induce PR1 gene expression

O=C(O)c1ccccc1O [SA, salicylic acid, reference compound]
NPR1 translocation from the cytoplasm to the nucleus (NPR1): as did SA treatment
